One may read the Vd as a proportionality between amount in the body and measured concentration, not a real space. Lower therefore signals confinement near the circulation. Broadly, the clearance is a measure of how efficiently the substance is removed, as volume per time. Low readings indicate inefficient removal, high ones efficient removal. By half-life is commonly meant the time in which the quantity being followed falls by half. Higher therefore signals slow decline. As a reminder, the AUC is concentration integrated over time. Read a high AUC as high exposure. Usually Ki stands for the dissociation constant of the complex between target and ligand, obtained from inhibition or displacement. Low values mean tighter binding, high ones weaker binding. Usually fraction unbound stands for the share of the substance not bound to proteins or other matrix. A low value points to extensive binding. Usually solubility stands for how much of the substance goes into solution per volume. A lower solubility goes with little dissolved substance. For orientation: GI50 means the concentration at which growth is held to half of that of the control.

A short description of series [1]: Metabolic stability in hepatocytes, human. It counts as in vitro ADME. The note with it: incubated with 50% of human serum.
Series [2] can be described thus: Relative plasma protein binding by shift in EC50 in a caspase induction assay, rat. The series is classed as in vitro ADME. To be noted: rat vs human.
Series [3] can be described thus: Metabolic stability in hepatocytes, mouse. It counts as in vitro ADME. To be noted: incubated with 50% of human serum.
A short description of series [4]: Relative plasma protein binding by shift in EC50 in a caspase induction assay, dog. The series is classed as in vitro ADME. To be noted: dog vs human.
A further series in a line: Dog IV PK. The note with it: dosed at 0.5 mg/kg.
Series [5] concerns NCI-H929 cell line-derived MM xenograft. Briefly: NCI-H929 subcutaneous multiple myeloma xenograft model. The series is classed as in vivo, mouse. The note with it: 60 and 80 mg/kg, single dose IV. The protocol:
(§1) Caspase-Glo 3/7 Assay (PROMEGA #G8090) was performed according to manufacturer’s instructions using 200 ng of sample lysate in a total volume of 100 μL per well. 100 μL of the GLO reagent were added, mixed, and incubated for 90 min at room temperature. The plate was measured on an EnSpireTM Plate reader (luminescence, 0.1s).
(§2) Female BomTac:NMRI-Foxn1nu mice and CB17/Icr-Prkdc(scid)/IcrCrl and were obtained from Taconic Denmark at an age of 6–8 weeks. After arrival of the local animal facility at Boehringer Ingelheim RCV GmbH & Co KG mice were allowed to adjust to housing conditions at least for 5 days before the start of the experiment. Mice were group-housed under pathogen-free and controlled environmental conditions and handled according to the institutional, governmental and European Union guidelines (Austrian Animal Protection Laws, GV-SOLAS and FELASA guidelines). Animal studies were approved by the internal ethics committee and the local governmental committee. To establish subcutaneous tumors mice were injected with 5 × 10^6 A427cells in Matrigel (CB17/Icr-Prkdc(scid)/IcrCrl), 1 × 10^6 NCI-H1048 cells in Matrigel (BomTac:NMRI-Foxn1nu and 5 × 10^6 NCI-H929 cells in Matrigel (CB17/Icr-Prkdc(scid)/IcrCrl). Tumor diameters were measured with a caliper three times a week. The volume of each tumor [in mm^3] was calculated according to the formula “tumor volume = length × diameter^2 × π/6.” To monitor side effects of treatment, mice were inspected daily for abnormalities and body weight was determined three times per week. Animals were sacrificed when the tumors reached a size of 1500 mm^3. […] Tumors were reported as regressing when the tumor volume at a given day was below the tumor volume at treatment start.

Test in series [6]: as above
The note with it: female, CB17/Icr-Prkdc(scid)/IcrCrl, mouse, in vivo, single dose IV, NCI-H929 xenograft study. The series is classed as in vivo, mouse. The protocol: as §1, §2

Another series has as its target Bcl-2 (Homo sapiens, UniProt P10415). In words: FPA assay, Bcl-2. It counts as binding.
The nature of another series: Plasma protein binding. It counts as in vitro ADME. To be noted: above the limit of quantification of the assay.
The nature of series [7]: Metabolic stability in hepatocytes, rat. It counts as in vitro ADME. To be noted: incubated with 50% of human serum.
A further series relates to OATP1B1/ABCC2. In words: Transporter substrate assessment. The series is classed as in vitro ADME.
Series [8] can be described thus: A427 NSCLC subcutaneous xenograft model. The note with it: female, CB17/Icr-Prkdc(scid)/IcrCrl, mouse, in vivo, single agent. It counts as in vivo, mouse. The method, then:
(§3) After fixation, tumor samples were embedded in paraffin blocks. Two-μm thick sections of each FFPE-block were prepared on a microtome, placed on glass slides and dewaxed. H&E staining was performed using Papanicolaous Solution 1a Harris′ Hematoxylin solution (Merck) and Shandon Eosin Y aqueous (Thermo) on the Gemini stainer (Thermo). […] Analysis was performed using HALO image analysis software 2.1 (Indica Laboratories). Quantification of Ki67 positivity was performed using multiplex IHC module with integrated AI based nucleus detection and a threshold set for positive nuclei was used. Viable tumor area was calculated from H&E staining using AI based classifier Densenet V2.
as §2

The next series is described as follows: Excretion study in rat. It counts as in vivo.
The nature of the next series: Aqueous solubility. It counts as physicochemical. To be noted: aqueous solution; at pH 7.8.
Another series has as its target Bcl-XL (Homo sapiens, UniProt Q07817). In words: FPA assay, Bcl-XL. The series is classed as binding.
Series [9] is described as follows: Metabolic stability in hepatocytes, dog. The series is classed as in vitro ADME. The note with it: incubated with 50% of human serum.
Series [10] is described as follows: Relative plasma protein binding by shift in EC50 in a caspase induction assay, minipig. It counts as in vitro ADME. The note with it: minipig vs human.
Series [11] can be described thus: Metabolic stability in hepatocytes, minipig. The note with it: incubated with 50% of human serum. The series is classed as in vitro ADME.
For series [12] the following is noted: mouse, in vivo; cited from earlier work.
For a further series, the system named is A427 cells. Briefly: cells. To be noted: Homo sapiens, A-427, read-out: A427 GI50.
The subject of series [13] is A427 cell line-derived NSCLC xenograft. Briefly: A427 NSCLC subcutaneous xenograft model. It counts as in vivo, mouse. The method, then:
as §3, §2

A further series deals with NCI-H1048 cells. Briefly: cells. The note with it: Homo sapiens, NCI-H1048, read-out: NCI-H1048 GI50.
In the next series the test system is NCI-H1048 SCLC xenograft. To be noted: topotecan at 2.5 mg/kg q3/4d.
Setting [14] is: docetaxel at 10 mg/kg q7d, single agent.

≈ marks a conversion by molar mass, not a printed value.

Sequence of Bcl-2 (P10415 whole entry, species assumed): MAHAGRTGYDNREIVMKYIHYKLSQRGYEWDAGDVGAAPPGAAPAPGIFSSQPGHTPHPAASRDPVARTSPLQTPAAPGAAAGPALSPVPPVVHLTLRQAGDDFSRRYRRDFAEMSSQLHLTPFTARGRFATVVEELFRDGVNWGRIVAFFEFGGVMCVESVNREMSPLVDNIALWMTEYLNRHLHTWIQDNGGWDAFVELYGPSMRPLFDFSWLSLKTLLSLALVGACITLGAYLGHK
Sequence of Bcl-XL (Q07817 whole entry, species assumed): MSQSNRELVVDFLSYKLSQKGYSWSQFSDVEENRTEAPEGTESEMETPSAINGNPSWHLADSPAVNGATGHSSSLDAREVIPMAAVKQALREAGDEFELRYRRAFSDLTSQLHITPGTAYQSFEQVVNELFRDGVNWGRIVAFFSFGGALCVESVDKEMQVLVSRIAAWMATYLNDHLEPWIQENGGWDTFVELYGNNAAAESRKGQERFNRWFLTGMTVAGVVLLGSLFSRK
Experimental for A427 cells: (§4) NCI-H1048 were cultured in custom medium prepared by PanBioTech containing DMEM/F12 + 5% fetal calf serum, 0.005 mg/mL insulin, 0.01 mg/mL transferrin, 30 nM sodium selenite, 10 nM hydrocortisone, 10 nM β-estradiol and 4.5 mM 2 mM L-glutamine. […] All cell lines were cultured at 37 °C with 5% CO2 in a humidified incubator and have been regularly tested negatively for mycoplasm contamination.
(§5) Suspension cells were plated immediately before compound addition. Adherent cell lines were incubated overnight at 37 °C in a tissue culture incubator prior to compound addition. Compounds were added in triplicates using an HP D300e Digital Dispenser (Hewlett-Packard) or manually at the concentrations indicated and total volumes were normalized using dimethyl sulfoxide (DMSO) backfill, with final DMSO concentration of 0.5%. Control wells were treated with DMSO only.
Experimental for Dog IV PK: (§6) For PK analysis, mice and dogs were administered intravenously with compound formulated either in 10% ethanol and 10% Cremophor EL for mice or in 50% ethanol and 50% PEG500 for dogs. Plasma samples were obtained at predefined time points and compound concentrations in plasma were measured by quantitative HPLC-MS/MS using an internal standard. Calibration and quality control samples were prepared using blank plasma from untreated animals. Samples were precipitated with acetonitrile and injected into a HPLC system (Agilent 1200). […] The HPLC was interfaced by ESI operated in positive ionization mode to a triple quadrupole mass spectrometer (6500+ Triple Quad System, SCIEX) operated in multiple reaction monitoring mode. Chromatograms were analyzed with Analyst (SCIEX) and pharmacokinetic parameters were calculated by noncompartmental analysis using proprietary software.
Experimental for Mouse IV PK: as §6
Experimental for NCI-H1048 SCLC xenograft: Female BomTac:NMRI-Foxn1nu mice and CB17/Icr-Prkdc(scid)/IcrCrl and were obtained from Taconic Denmark at an age of 6–8 weeks. After arrival of the local animal facility at Boehringer Ingelheim RCV GmbH & Co KG mice were allowed to adjust to housing conditions at least for 5 days before the start of the experiment. […] To establish subcutaneous tumors mice were injected with 5 × 10^6 A427cells in Matrigel (CB17/Icr-Prkdc(scid)/IcrCrl), 1 × 10^6 NCI-H1048 cells in Matrigel (BomTac:NMRI-Foxn1nu and 5 × 10^6 NCI-H929 cells in Matrigel (CB17/Icr-Prkdc(scid)/IcrCrl). Tumor diameters were measured with a caliper three times a week. The volume of each tumor [in mm^3] was calculated according to the formula “tumor volume = length × diameter^2 × π/6.” To monitor side effects of treatment, mice were inspected daily for abnormalities and body weight was determined three times per week. Animals were sacrificed when the tumors reached a size of 1500 mm^3. […] Tumors were reported as regressing when the tumor volume at a given day was below the tumor volume at treatment start.
Experimental for NCI-H1048 cells: as §4, §5

Turning to `COc1c(OCC2CCOCC2)cc(N2C[C@@H](C)n3c(c(CCCOc4cc(C)c(Cl)c(C)c4)c4ccc(Cl)c(-c5c(C)nc(C)nc5C)c43)C2=O)c2c1cc(C(=O)O)n2C` [Compound 26, (R)-7-(7-Chloro-10-(3-(4-chloro-3,5-dimethylphenoxy)propyl)-4-methyl-1-oxo-6-(2,4,6-trimethylpyrimidin-5-yl)-3,4-dihydropyrazino[1,2-a]indol-2(1H)-yl)-4-methoxy-1-methyl-5-((tetrahydro-2H-pyran-4-yl)methoxy)-1H-indole-2-carboxylic Acid], the CL in “Mouse IV PK” (mouse IV, dosed at 25 mg/kg) was found to be 0.132 L/h/kg; in “Dog IV PK”, 0.312 L/h/kg. Further, the “reduction in clearance from compound 20” value in the series “Mouse IV PK” (mouse IV, relative to compound 20) is 20 fold. In “Mouse IV PK” (mouse, plasma, iv, 25 mg/kg), this molecule had a Vd of less than 0.1 L/kg. Besides, in the series “Mouse IV PK” (mouse, plasma, iv, 25 mg/kg), the clearance was determined as 0.132 L/h/kg. In the series “Mouse IV PK” (mouse, plasma, iv, 25 mg/kg), the half-life was 3.7 h. Moreover, the “metabolic stability in hepatocytes” value in series [1] is on record as 12 % Qh; in series [3], 40 % Qh; in series [7], 22 % Qh; in series [9], 19 % Qh; in series [11], 35 % Qh. Moreover, the “plasma protein binding lower than human” value in series [2] worked out at 3 fold. Further, the “plasma protein binding lower than in human” value in series [4] and in series [10] was approximately 2 fold throughout. The AUC/Dose in “Dog IV PK” turned out to be 3860 nM*h/mpk. In the series “Dog IV PK”, the “CL (% hep blood flow)” value is recorded as 17 % hep blood flow. The “change in the median weight of the mice” value in series [5] was “no significant change”. The AUC is 442 µM·h in series [6] (60 mg/kg), 635 µM·h in series [6] (80 mg/kg) and 552 µM·h in series [8] (26 at 60 mg/kg q7d IV). In addition, the Ki on Bcl-2 worked out at 1.8 µM; on Bcl-XL it was 36 µM. Besides, in “Plasma protein binding”, the fraction unbound was less than 0.002. In addition, the “substrate of OATP1B1/ABCC2” value in the series on OATP1B1/ABCC2 is “substrate”. For the same molecule, the “biliary clearance as share of the total clearance” value in “Excretion study in rat” is reported as 60–75%. Besides, the concentration in solution in “Aqueous solubility” (solubility) was 15 mg/mL (≈ 17.3 mM).
On to `Cc1c(-c2c(-c3ccc(F)o3)sc3ncnc(O[C@H](Cc4ccccc4OCc4ccnn4CC(F)(F)F)C(=O)O)c23)ccc(OCCN2CCN(C)CC2)c1Cl` [Compound S63845], for which the “maximum tolerated dose lower than in wild-type mice” value in series [12] is recorded as approximately 3 fold.
Turning to `CC(=O)O[C@@]12CO[C@@H]1C[C@H](O)[C@@]1(C)C(=O)[C@H](O)C3=C(C)[C@@H](OC(=O)[C@H](O)[C@@H](NC(=O)OC(C)(C)C)c4ccccc4)C[C@@](O)([C@@H](OC(=O)c4ccccc4)[C@H]21)C3(C)C` [Docetaxel, docetaxel], the GI50 in the series with A427 cells amounted to 4.4 µM. Further, in series [13] (setting [14]), the “TGI d21” value came out at 112% and the “Tumor regressions d21” value turned out to be 8 x/8. In [13] (docetaxel at 10 mg/kg q7d alone), the “tumor outgrowth began around day after treatment start” value was approximately 15 days. The same molecule had an AUC in series [8] (docetaxel at 10 mg/kg q7d) of 15.8 µM·h.
Turning to `CC[C@@]1(O)C(=O)OCc2c1cc1n(c2=O)Cc2cc3c(CN(C)C)c(O)ccc3nc2-1` [Topotecan, topotecan], in the series on NCI-H1048 cells, the GI50 worked out at 0.014 µM. In the series with NCI-H1048 SCLC xenograft, the “TGI d16” value was determined as 94% and the “Tumor regression d16” value was 1 x/8.

The record behind these values is article PMC11345828 (Journal of Medicinal Chemistry, 2024).
